Measurements taken from patent US20230286973A1, “PROTEIN SECRETION INHIBITORS” (KEZAR LIFE SCIENCES, priority 2020, published 2023).
Like-named read-outs stand apart in the source and are kept apart here.

Key:
[1] = tested on: multiple myeloma cell line NCI-H929; assay: H929 Cell Viability Assay; type: cell-based, human; conditions: Homo sapiens, NCI-H929, 48 h, NCI-H929 cells, Celltiter-Glo
In short: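 NCI-H929 cells in RPMI 1640 with 10% FBS were treated with compound dilutions for 48 h at 37° C, 5% CO2. Viability was read by CellTiter-Glo luminescence. Undefined stereocentres denote stereoisomer mixtures.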

[2] = Liver Microsome Stability Assay (rat); conditions: rat liver microsomes, with NADPH, 1.0 uM compound
Experimental: (§1) Stability of a compound was assessed in the presence of liver microsomes from various sources—mouse, rat, monkey and human liver microsomes. 1.0 uM compound, 0.4% DMSO in 0.1 M Potassium Phosphate with 1.0 mg/mL liver microsomes, were incubated at 37° C. with or without 1 mM NADPH. The samples were quenched at 0, and 30 minutes.

[3] = Liver Microsome Stability Assay (human); conditions: human liver microsomes, with NADPH, 1.0 uM compound
Experimental: as §1

[4] = tested on: PD1-ss+10aa/Gaussia Luciferase; assay: Dox-Induced PD1-ss-Gluc Assay; type: cell-based; conditions: 24 hr Dox induction, 293FRT/TO cells, read-out: 24 hr Dox Inducible PD1ssGluc 293FRT/TO: Mean IC50
In short: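 Gaussia luciferase fused downstream of the PD1 signal peptide plus 10 residues was expressed on doxycycline induction in stably transfected Flp-In 293 T-REx cells. Compounds were added with doxycycline and incubated at 37 °C, 5% CO2.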

[5] = Liver Microsome Stability Assay (mouse); conditions: mouse liver microsomes, with NADPH, 1.0 uM compound
Experimental: as §1

[6] = tested on: multiple myeloma cell line U266B1; assay: U266 Cell Viability Assay; type: cell-based, human; conditions: Homo sapiens, U-266, 48 h, U266B1 cells, Celltiter-Glo
In short: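 U266B1 multiple myeloma cells in RPMI 1640/10% FBS were treated with compound dilutions for 48 h at 37 °C, 5% CO2. Viability was measured by CellTiter-Glo luminescence; compounds drawn without stereochemistry were tested as stereoisomer mixtures.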

[7] = tested on: IL-2-FL/Gaussia Luciferase; assay: Dox Induced IL2-FL-Gluc Assay; type: cell-based; conditions: for IC50: 24 hr Dox induction, 293FRT/TO cells, read-out: 24 hr Dox Inducible IL2FLGluc 293FRT/TO: Mean IC50; for 24 hr Dox Inducible IL2FLGluc 293FRT/TO: IL2/PD1: ratio of IL2FLGluc IC50 to PD1ssGluc IC50
In short: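 Stable Flp-In 293 T-REx cells carrying doxycycline-inducible full-length IL-2 (aa 1-153) fused to Gaussia luciferase, plated the day before assay. Compound dilutions added in medium containing doxycycline, incubated at 37 °C, 5% CO2. Undefined stereocentres mean data refer to stereoisomer mixtures.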

[8] = Liver Microsome Stability Assay (monkey); conditions: monkey liver microsomes, with NADPH, 1.0 uM compound
Experimental: as §1

[9] = tested on: HER3-ss+4aa/Gaussia Luciferase; assay: Dox-Induced Her3-ss-Gluc Assay; type: cell-based; conditions: 24 hr Dox induction, 293FRT/TO cells, read-out: 24 hr Dox Inducible Her3(ss + 4)Gluc 293FRT/TO: Mean IC50
In short: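 Stable Flp-In 293 T-REx cells carried a doxycycline-inducible HER3 signal sequence (+4 aa) fused to Gaussia luciferase. Cells were plated the day before the assay. Compound dilutions in DMSO/media containing doxycycline were then added, and plates were incubated at 37 °C, 5% CO2.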

[10] = tested on: TNFα-FL/Gaussia Luciferase; assay: Dox Induced TNFα-FL-Gluc Assay; type: cell-based; conditions: for IC50: 24 hr Dox induction, 293FRT/TO cells, read-out: 24 hr Dox Inducible TNFaFLGluc 293FRT/TO: Mean IC50; for 24 hr Dox Inducible TNFaFLGluc 293FRT/TO: TNF/PD1: ratio of TNFaFLGluc IC50 to PD1ssGluc IC50
In short: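 Flp-In 293 T-REx cells stably carrying doxycycline-inducible full-length TNFα (aa 1-233) fused to Gaussia luciferase. Plated the day before, then treated with compound dilutions in doxycycline-containing medium at 37° C, 5% CO2.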

[11] = '<=>' given where both are I.A.

SMILES	EC50 [1] [µM]	Liver Microsome Stability (Multiple Species): Rat - % Remaining after 30 min w/NADPH [2] [%]	Liver Microsome Stability (Multiple Species): Human - % Remaining after 30 min w/NADPH [3] [%]	IC50 [4] [µM]	Liver Microsome Stability (Multiple Species): Mouse - % Remaining after 30 min w/NADPH [5] [%]	EC50 [6] [µM]	IC50 [7] [µM]	Liver Microsome Stability (Multiple Species): Monkey - % Remaining after 30 min w/NADPH [8] [%]	IC50 [9] [µM]	IC50 [10] [µM]	IC50 ([4]; mean) [µM]	IC50 ([7]; mean) [µM]	IC50 ([9]; mean) [µM]	IC50 ([10]; mean) [µM]	24 hr Dox Inducible IL2FLGluc 293FRT/TO: IL2/PD1 [7]	24 hr Dox Inducible TNFaFLGluc 293FRT/TO: TNF/PD1 [10]	24 hr Dox Inducible IL2FLGluc 293FRT/TO: IL2/PD1 [7, 11]	24 hr Dox Inducible TNFaFLGluc 293FRT/TO: TNF/PD1 [10, 11]
O=C(Nc1nc([C@H]2CCCN2c2ccc(OC3CCSCC3)cc2)cs1)c1cccn1Cc1ccnc(F)c1 [Compound A170, (R)-1-((2-fluoropyridin-4-yl)methyl)-N-(4-(1-(4-((tetrahydro-2H-thiopyran-4-yl)oxy)phenyl)pyrrolidin-2-yl)thiazol-2-yl)-1H-pyrrole-2-carboxamide]	5.71	2.02	0.58	0.0683	1.37	> 25	0.0834	2.6	0.0811	0.687					1.2	10.1		
CC(=O)N1CCC(Oc2ccc(N3CCC[C@@H]3c3csc(NC(=O)c4cccn4Cc4ccnc(F)c4)n3)cc2F)CC1 [Compound A102, (R)-N-(4-(1-(4-((1-acetylpiperidin-4-yl)oxy)-3-fluorophenyl)pyrrolidin-2-yl)thiazol-2-yl)-1-((2-fluoropyridin-4-yl)methyl)-1H-pyrrole-2-carboxamide]	0.317	19.7	8.26	0.015	7.68	> 25	0.0275	1.22	0.0169	0.121					1.8	8.11		
CC(=O)N1CCCC(c2ccc(N3CCC[C@@H]3c3csc(NC(=O)c4cccn4Cc4ccncc4)n3)cc2)C1 (stereo partly drawn) [Compound A63, N-(4-((2R)-1-(4-(1-acetylpiperidin-3-yl)phenyl)pyrrolidin-2-yl)thiazol-2-yl)-1-(pyridin-4-ylmethyl)-1H-pyrrole-2-carboxamide]	1.78	6.07	2.22	0.08	3.64	> 25	0.149	1.18	0.13	1.06					1.9	13.2		

Further lines, with some results ahead:

EC50 [1] [µM]	Liver Microsome Stability (Multiple Species): Rat - % Remaining after 30 min w/NADPH [2] [%]	Liver Microsome Stability (Multiple Species): Human - % Remaining after 30 min w/NADPH [3] [%]	IC50 [4] [µM]	Liver Microsome Stability (Multiple Species): Mouse - % Remaining after 30 min w/NADPH [5] [%]	EC50 [6] [µM]	IC50 [7] [µM]	Liver Microsome Stability (Multiple Species): Monkey - % Remaining after 30 min w/NADPH [8] [%]	IC50 [9] [µM]	IC50 [10] [µM]	IC50 ([4]; mean) [µM]	IC50 ([7]; mean) [µM]	IC50 ([9]; mean) [µM]	IC50 ([10]; mean) [µM]	SMILES	24 hr Dox Inducible IL2FLGluc 293FRT/TO: IL2/PD1 [7]	24 hr Dox Inducible TNFaFLGluc 293FRT/TO: TNF/PD1 [10]	24 hr Dox Inducible IL2FLGluc 293FRT/TO: IL2/PD1 [7, 11]	24 hr Dox Inducible TNFaFLGluc 293FRT/TO: TNF/PD1 [10, 11]
15.7	0.46	0.37	0.0206	0.29	> 22.2	1.72	0.12	0.784	18.4					CC(C)c1ccc(/C=C/c2csc(NC(=O)c3cccn3Cc3ccnc(F)c3)n2)nc1 [Compound B64, (E)-1-((2-fluoropyridin-4-yl)methyl)-N-(4-(2-(5-isopropylpyridin-2-yl)vinyl)thiazol-2-yl)-1H-pyrrole-2-carboxamide]	84	894		
1.78	36	61.3		74.3	> 25		22.2			0.0314	0.0949	0.0464	0.302	CCc1ccc(N2CCC[C@@H]2c2csc(NC(=O)c3cccn3CC3CCOCC3)n2)cc1 [Compound C110, (R)-N-(4-(1-(4-ethylphenyl)pyrrolidin-2-yl)thiazol-2-yl)-1-((tetrahydro-2H-pyran-4-yl)methyl)-1H-pyrrole-2-carboxamide]			3	9.61
> 25	60.4	10.2	> 25	60.2	> 25	> 25	5.04	> 25	> 25					NC(=O)CCn1cnc(/C=C/c2csc(NC(=O)c3cccn3Cc3ccnc(F)c3)n2)c1 [Compound B109, (E)-N-(4-(2-(1-(3-amino-3-oxopropyl)-1H-imidazol-4-yl)vinyl)thiazol-2-yl)-1-((2-fluoropyridin-4-yl)methyl)-1H-pyrrole-2-carboxamide]	<=>1.0	<=>1.00		
> 25	78.7	74.3		57.8	> 25		90.3			> 25	> 25	> 25	> 25	O=C(Nc1nc([C@H]2CCCN2c2ccccc2)cs1)c1cccn1CCCc1nnn[nH]1 [Compound C14, (R)-1-(3-(1H-tetrazol-5-yl)propyl)-N-(4-(1-phenylpyrrolidin-2-yl)thiazol-2-yl)-1H-pyrrole-2-carboxamide]			1	
> 25	69.7	7.08	> 25	68.2	> 25	> 25	3.11	> 25	> 25					CC(C(N)=O)n1cnc(/C=C/c2csc(NC(=O)c3cccn3Cc3ccnc(F)c3)n2)c1 (centres unmarked) [Compound B113, (E)-N-(4-(2-(1-(1-amino-1-oxopropan-2-yl)-1H-imidazol-4-yl)vinyl)thiazol-2-yl)-1-((2-fluoropyridin-4-yl)methyl)-1H-pyrrole-2-carboxamide]	<=>1.0	<=>1.00		
> 25	34.7	35.7		17	> 25		27.4			7.88	> 25	9.1	> 25	NC(=O)CCCCn1cccc1C(=O)Nc1nc([C@H]2CCCN2c2ccccc2)cs1 [Compound C58]			3.2	>3.17
